Test [1] deals with T1, Fibroblast growth factor receptor 1 (Homo sapiens, UniProt P11362). As to conditions: HUVEC.
Target sequence in this assay (P11362 22-822 limits assumed): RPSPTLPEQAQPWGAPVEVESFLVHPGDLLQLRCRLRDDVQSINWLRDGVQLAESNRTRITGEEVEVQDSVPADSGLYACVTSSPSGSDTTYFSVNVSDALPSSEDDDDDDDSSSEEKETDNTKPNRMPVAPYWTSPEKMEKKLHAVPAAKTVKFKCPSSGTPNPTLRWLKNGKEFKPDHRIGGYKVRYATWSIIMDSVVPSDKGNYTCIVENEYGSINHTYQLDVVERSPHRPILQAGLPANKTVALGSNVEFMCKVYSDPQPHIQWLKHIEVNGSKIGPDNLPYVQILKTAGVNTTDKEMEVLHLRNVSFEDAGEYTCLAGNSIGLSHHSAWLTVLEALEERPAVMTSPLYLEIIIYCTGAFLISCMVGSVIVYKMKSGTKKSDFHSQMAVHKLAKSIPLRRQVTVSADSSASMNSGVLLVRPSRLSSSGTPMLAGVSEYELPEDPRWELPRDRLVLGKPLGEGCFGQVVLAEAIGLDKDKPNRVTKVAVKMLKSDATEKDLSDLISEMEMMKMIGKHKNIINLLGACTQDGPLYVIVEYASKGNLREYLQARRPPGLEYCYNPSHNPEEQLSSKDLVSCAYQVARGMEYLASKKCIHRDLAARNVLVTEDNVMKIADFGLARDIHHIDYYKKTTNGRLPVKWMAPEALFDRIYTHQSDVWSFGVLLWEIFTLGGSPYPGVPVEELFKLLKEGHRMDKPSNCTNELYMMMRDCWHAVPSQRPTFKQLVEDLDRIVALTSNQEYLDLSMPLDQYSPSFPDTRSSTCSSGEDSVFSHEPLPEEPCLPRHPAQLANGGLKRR
Description: Inhibition of rhFGF2-induced cellular proliferation of HUVEC
The target of test [2] is T1, Fibroblast growth factor receptor 1. Put plainly: Inhibition of human FGFR1 kinase expressed in insect cell by HTRF detection method. For orientation: TR-FRET usually uses a lanthanide donor and a delayed reading to cut background.
Target sequence in this assay (P11362 whole entry): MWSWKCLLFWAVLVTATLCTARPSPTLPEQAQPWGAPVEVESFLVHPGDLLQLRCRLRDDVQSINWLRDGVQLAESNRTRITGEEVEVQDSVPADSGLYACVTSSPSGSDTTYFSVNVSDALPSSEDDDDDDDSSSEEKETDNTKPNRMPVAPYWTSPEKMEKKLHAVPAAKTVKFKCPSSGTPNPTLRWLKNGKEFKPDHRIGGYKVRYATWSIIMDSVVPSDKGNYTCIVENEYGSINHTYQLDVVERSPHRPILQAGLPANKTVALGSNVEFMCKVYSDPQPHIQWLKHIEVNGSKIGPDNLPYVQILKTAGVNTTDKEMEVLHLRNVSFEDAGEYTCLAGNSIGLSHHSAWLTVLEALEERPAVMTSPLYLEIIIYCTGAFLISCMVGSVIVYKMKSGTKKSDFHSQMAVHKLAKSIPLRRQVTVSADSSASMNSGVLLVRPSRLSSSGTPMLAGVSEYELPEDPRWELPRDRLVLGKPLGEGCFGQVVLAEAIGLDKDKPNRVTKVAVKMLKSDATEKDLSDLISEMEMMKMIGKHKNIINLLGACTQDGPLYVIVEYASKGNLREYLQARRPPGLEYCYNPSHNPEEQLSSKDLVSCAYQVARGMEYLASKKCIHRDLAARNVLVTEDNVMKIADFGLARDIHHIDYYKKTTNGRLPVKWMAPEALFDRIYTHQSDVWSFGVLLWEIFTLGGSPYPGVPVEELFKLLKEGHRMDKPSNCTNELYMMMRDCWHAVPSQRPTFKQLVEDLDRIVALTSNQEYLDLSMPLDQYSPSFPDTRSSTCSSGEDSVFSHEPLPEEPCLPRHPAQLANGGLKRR

Broadly, the IC50 is the concentration needed to halve the response being measured. Read a low IC50 as greater potency.

In test [1], `Cc1[nH]c(/C=C2\C(=O)Nc3ccccc32)c(C)c1CCC(=O)O` returned an MEC of 10 µM.
The compound `COc1cc(OC)cc(-c2ccc3c(c2)NC(=O)/C3=C\c2[nH]c(C)c(CCC(=O)O)c2C)c1` showed an IC50 in test [2] of 400 nM. In test [1], this compound came in with an MEC of 0.4 µM.
Taken in the same sequence, the figures for `COc1cccc(-c2ccc3c(c2)NC(=O)/C3=C\c2[nH]c(C)c(CCC(=O)O)c2C)c1` were 1200 nM and 0.4 µM.

(Values after ChEMBL document CHEMBL1146241, “Novel inhibitor for fibroblast growth factor receptor tyrosine kinase” (Bioorg Med Chem Lett, 2007).)
